Measurements published in US20050142231A1, “Pharmaceutical activity and manufacturing method of the five-plant compound hypolipemic products” (priority 2003, published 2005).

Test system: lecithin cholesterol acyltransferase (LCAT)
Assay: Effect upon activity of lecithin cholesterol acyltransferase in rats suffering from hyperlipemia
Format: in vivo, rat
Description: The original lecithin and cholesterol in the serum were used as substrates, which were kept warm for some time. Because of the effect of lecithin cholesterol acyltransferase (LCAT), cholesterolester (CE) in serum was increased, but free cholesterol (FC) decreased. Then cholesterol was oxidized by cholesterol oxidase and hydrogen peroxide was produced. The latter reacted with […] and phenol under the action of horseradish peroxidase to produce red quinone imide, which can be used for colorimetric analysis to determine the content of FC. The decrease in FC, ie, the esterification of cholesterol can indicate the activity of LCAT in magnitude. […]
(2) Two portions of 0.1 ml fresh serum were taken from each animal of each group and were preheated in water bath at 37° C. for five minutes, to one portion of which 3 ml cholesterol enzyme-linked reagent application solution was added (30 ml enzyme reaction solution for 1 ml cholesterol enzyme-linked reagent), mixed thoroughly and heated in water bath at 37° C. for 15 minutes while blank control tube and standard tube (0.05 ml standard cholesterol absolute alcohol solution) were made. […] OD was read and FC content was calculated in terms of Beer's law, which was the serum FC content before reaction. […] Then FC content was determined as above, expressed as OD, which was the serum FC content after reaction. […]

CCOC(=O)C(C)(C)Oc1ccc(Cl)cc1 [Astromid-s]
Effect on activity of LCAT (in words) (0.13 g/kg): not noticeable
LCAT activity (TC esterification nmol/ml/h) (hyperlipemia rat serum, dose 0.13 g/kg for seven days, x ± SD): 536 ± 277 nmol/mL/h
